Test results: ChEMBL document CHEMBL6182838, “Structure-activity relationship expansion and microsomal stability assessment of the 2-morpholinobenzoic acid scaffold as antiproliferative phosphatidylcholine-specific phospholipase C inhibitors” (RSC Med Chem, 2025)

Tests used:
Bacillus cereus = assay: Inhibition of Bacillus cereus phosphatidylcholine specific phospholipase C (PC-PLC BC) assessed as enzyme activity by measuring formation of resorufin fluorophore 10 uM by Amplex-Red based fluorescence assay relative to control; parameters: scale not given: the % may be the effect or the level left
MDA-MB-231 = assay: Antiproliferative activity against human MDA-MB-231 cells assessed as cell proliferation at 10 uM measured after 3 days incubation followed by incubated 5 hrs with [3H]-thymidine by 3H-thymidine incorporation assay relative to control; assay type: functional; settings: MDA-MB-231, 72 h, time 3 day, read-out: Activity
HCT-116 = assay: Antiproliferative activity against human HCT-116 cells assessed as cell proliferation at 10 uM measured after 3 days incubation followed by incubated 5 hrs with [3H]-thymidine by 3H-thymidine incorporation assay relative to control; assay type: functional; settings: HCT-116, 72 h, time 3 day, read-out: Activity

Activity (Bacillus cereus) [%]	Structure (SMILES)	growth at 10 µM (MDA-MB-231) [%]	growth at 10 µM (HCT-116) [%]
113	O=C(O)c1cc(NCc2cccc(Br)c2)ccc1C1CCOCC1	107	104
30.5	O=C(NO)c1cc(NCc2cccc(Cl)c2)ccc1N1CCOCC1		
80.7	COc1ccccc1CNc1ccc(C2CCOCC2)c(C(=O)NO)c1	80.7	93.3
	O=C(NO)c1cc(NCc2ccccc2Br)ccc1N1CCOCC1	7.4	
110	COC(=O)c1cc(NCc2ccc(Br)cc2)ccc1C1CCOCC1	79.6	61.2
75.9	COC(=O)c1ccc(NCc2ccccc2Cl)cc1N1CCOCC1	70.4	43.2
78.9	COC(=O)c1ccc(NCc2cccc(F)c2)cc1N1CCOCC1	85.9	71
46.9	COc1ccccc1CNc1ccc(C(=O)NO)c(N2CCOCC2)c1	70.7	83.2
52	COC(=O)c1cc(NCc2ccc(F)cc2)ccc1C1CCOCC1	36	25.3
82.8	O=C(NO)c1cc(NCc2ccccc2Cl)ccc1C1CCOCC1	86.8	86.7
106	COc1cccc(CNc2ccc(C3CCOCC3)c(C(=O)O)c2)c1	104	101
96.6	O=C(O)c1ccc(NCc2ccccc2)cc1N1CCOCC1	96.8	92.4
101	COC(=O)c1cc(NCc2ccccc2Cl)ccc1C1CCOCC1	25.9	25.9
103	COC(=O)c1ccc(NCc2ccc(Br)cc2)cc1N1CCOCC1	68.9	52.5
51.4	COc1cccc(CNc2ccc(C(=O)NO)c(N3CCOCC3)c2)c1	65.7	77.4
44.5	COC(=O)c1cc(NCc2cccc(F)c2)ccc1C1CCOCC1	41.3	29.2
71.4	O=C(NO)c1cc(NCc2ccc(Br)cc2)ccc1C1CCOCC1	61.6	60.1
	COC(=O)c1cc(N(C)Cc2ccccc2Cl)ccc1N1CCOCC1	83.8	54.5
80.4	COc1ccc(CNc2ccc(C3CCOCC3)c(C(=O)NO)c2)cc1	82	88.6
109	COC(=O)c1ccc(NCc2cccc(OC)c2)cc1N1CCOCC1	80.6	48.5
47.5	O=C(NO)c1ccc(NCc2cccc(Cl)c2)cc1N1CCOCC1	39.6	48.6
112	COC(=O)c1cc(NCc2ccc(Cl)cc2)ccc1C1CCOCC1	83.8	56.7
55.8	COC(=O)c1ccc(NCc2cccc(Cl)c2)cc1N1CCOCC1	68.9	44.3
45.6	O=C(NO)c1ccc(NCc2ccc(Br)cc2)cc1N1CCOCC1	21.8	18.1

Activity (Bacillus cereus) [%]	Structure (SMILES)	growth at 10 µM (MDA-MB-231) [%]	growth at 10 µM (HCT-116) [%]
112	O=C(O)c1cc(NCc2ccc(Cl)cc2)ccc1C1CCOCC1	115	101
75.2	O=C(NO)c1cc(NCc2cccc(Br)c2)ccc1C1CCOCC1	77.6	78.8
94	O=C(NO)c1cc(NCc2ccccc2F)ccc1C1CCOCC1	88	98.6
43.4	O=C(O)c1cc(NCc2ccccc2F)ccc1C1CCOCC1	113	104
75.5	O=C(NO)c1cc(NCc2ccccc2Br)ccc1C1CCOCC1	74	78.3
99.1	O=C(O)c1ccc(NCc2ccc(Br)cc2)cc1N1CCOCC1	99.7	101
80.7	O=C(NO)c1cc(NCc2ccccc2)ccc1C1CCOCC1	90	80.2
105	COC(=O)c1ccc(NCc2ccccc2F)cc1N1CCOCC1	92.8	67.4
45.3	O=C(NO)c1ccc(NCc2cccc(Br)c2)cc1N1CCOCC1	25.3	32.3
41.3	COC(=O)c1ccc(NCc2ccc(Cl)cc2)cc1N1CCOCC1	70.3	43.8
32.4	O=C(O)c1ccc(NCc2ccc(Cl)cc2)cc1N1CCOCC1	88.4	88.2
62.4	O=C(O)c1ccc(NCc2ccc(F)cc2)cc1N1CCOCC1	94.8	91.6
54.7	O=C(NO)c1ccc(NCc2ccccc2Br)cc1N1CCOCC1	30	54.5
54	O=C(O)c1cc(NCc2ccccc2)ccc1C1CCOCC1	107	99.8
49.1	O=C(NO)c1ccc(NCc2cccc(F)c2)cc1N1CCOCC1	76.2	84.3
112	COC(=O)c1cc(NCc2ccccc2Br)ccc1C1CCOCC1	16.4	20.3
88.2	O=C(NO)c1cc(NCc2cccc(F)c2)ccc1C1CCOCC1	84.4	94.4
45.5	COc1ccc(CNc2ccc(C(=O)NO)c(N3CCOCC3)c2)cc1	76.9	91.5
106	COc1cccc(CNc2ccc(C(=O)O)c(N3CCOCC3)c2)c1	101	103
54.1	O=C(NO)c1ccc(NCc2ccccc2Cl)cc1N1CCOCC1	41.8	68.4
85.5	COC(=O)c1cc(NCc2cccc(OC)c2)ccc1C1CCOCC1	83.9	62.5
106	COc1ccc(CNc2ccc(C(=O)O)c(N3CCOCC3)c2)cc1	110	105
105	COc1ccccc1CNc1ccc(C(=O)O)c(N2CCOCC2)c1	92.6	102
97.4	COC(=O)c1ccc(NCc2cccc(Br)c2)cc1N1CCOCC1	62.9	34.7

Activity (Bacillus cereus) [%]	Structure (SMILES)	growth at 10 µM (MDA-MB-231) [%]	growth at 10 µM (HCT-116) [%]
36.3	COC(=O)c1ccc(NCc2ccccc2Br)cc1N1CCOCC1	51.3	29.5
79.7	O=C(NO)c1cc(NCc2cccc(Cl)c2)ccc1C1CCOCC1	80.1	83
43.4	O=C(NO)c1ccc(NCc2ccccc2)cc1N1CCOCC1	85.7	89.7
10.7	O=C(O)c1cc(NCc2cccc(Cl)c2)ccc1N1CCOCC1		
95.2	O=C(O)c1ccc(NCc2ccccc2Br)cc1N1CCOCC1	90	94.4
104	COc1ccc(CNc2ccc(C3CCOCC3)c(C(=O)O)c2)cc1	102	93.6
80.3	COC(=O)c1ccc(NCc2ccc(F)cc2)cc1N1CCOCC1	81.9	65
94.7	COC(=O)c1cc(NCc2ccccc2OC)ccc1C1CCOCC1	22	31.2
105	O=C(O)c1cc(NCc2ccc(Br)cc2)ccc1C1CCOCC1	102	104
104	COC(=O)c1cc(NCc2cccc(Cl)c2)ccc1C1CCOCC1	48.3	37.2
62.3	COC(=O)c1cc(NCc2ccccc2F)ccc1C1CCOCC1	17.6	9.5
80.6	COc1cccc(CNc2ccc(C3CCOCC3)c(C(=O)NO)c2)c1	89.2	94.4
109	O=C(O)c1cc(NCc2cccc(Cl)c2)ccc1C1CCOCC1	114	103
102	COC(=O)c1ccc(NCc2ccccc2)cc1N1CCOCC1	95.2	85.4
82.2	O=C(O)c1ccc(NCc2ccccc2F)cc1N1CCOCC1	96.4	95.2
104	COC(=O)c1ccc(NCc2ccc(OC)cc2)cc1N1CCOCC1	87.5	70.4
77.2	COC(=O)c1cc(NCc2ccccc2)ccc1C1CCOCC1	29.3	19.8
33.1	O=C(O)c1ccc(NCc2cccc(Cl)c2)cc1N1CCOCC1	87.2	88.6
93.7	O=C(NO)c1cc(NCc2ccc(F)cc2)ccc1C1CCOCC1	86.6	91.6
108	COc1ccccc1CNc1ccc(C2CCOCC2)c(C(=O)O)c1	100	106
109	COC(=O)c1cc(NCc2cccc(Br)c2)ccc1C1CCOCC1	58.8	40.1
102	O=C(O)c1cc(NCc2ccc(F)cc2)ccc1C1CCOCC1	107	104
